The values that follow come from patent publication US7071162B1, “Combined use of cementum attachment protein and cyclosporin a for improved attachment of dental and orthopedic implants” (priority 1997, dated 2006).

The test system of test [1] is periodontal ligament cells. As to the kind of experiment: Attachment and spread of periodontal ligament cells. Type of test: cell-based. The conditions noted are these: for attachment and spread of cells from the periodontal ligament: compared with gingival fibroblasts. The text has this: Cementum attachment protein (CAP) is a protein of molecular mass approximately 56 kDa present in cementum and specifically expressed by mineralized tissue-forming cells of the periodontium. […] The protein has sequences containing Gly-X-Y repeats typical of a collagen helix. SEQ ID NOS 1-5 are fragments of CAP. One 17-amino-acid peptide, SEQ ID NO 2, has 82% homology with a type XII collagen domain. […] Although another 19-amino-acid-long peptide (SEQ ID NO 3) has 95% homology to bovine al (I) collagen, two other peptides, SEQ ID NOS 4 and 5, are only 79% and 68% homologous.

Test [2] relates to periodontal cells. The note with it: CAP-coated surfaces; Pitaru et al. 1995; cited from earlier work.

Turning to Cementum attachment protein [CAP], the “capacity to promote attachment of periodontal cells after bacterial collagenase” value in test [1] (bacterial collagenase digestion) is recorded as “eliminate the capacity of CAP to promote attachment of periodontal cells”. In addition, the “capacity to promote attachment of periodontal cells after chondroitinase ABC digestion” value in test [1] (chondroitinase ABC digestion) is reported as “had no effect”. In addition, the “attachment and spread of cells from the periodontal ligament” value in test [1] is on record as “more efficiently than that of gingival fibroblasts”. Also, in test [2], the “migration and attachment of periodontal cells versus gingival fibroblasts” value was “migrate in response to and attach better to CAP-coated surfaces than do gingival fibroblasts”.

For “type XIl collagen: collagen type with a domain 82% homologous to SEQ ID NO 2 of CAP [reference compound]”, the “attachment and spread of cells from the periodontal ligament” value in test [1] is listed as “does not promote the attachment of periodontal ligament cells”.
